The results in this text go back to US20160002204A1 (Board of Regents, The University of Texas System, priority 2014, published 2016).

One assay has as its system A549 cells. The assay is described as follows: A549 proliferation (viability) assay, Cell Titer Fluor, 72 hours. It counts as cell-based. As to conditions: Homo sapiens. An outline of the steps:
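Compound exposure lasted 72 h (final DMSO 0.5% v/v) on A549 cells plated at 1000 cells/well one day earlier. Cell Titer Fluor added, 30 min at 37 °C, fluorescence read; EC50 derived by four-parameter logistic curve fitting.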

Assay [1] deals with T1, GLS1 (purified recombinant human GAC) (Homo sapiens, UniProt O94925).
T1 sequence (O94925 55-598 isoform O94925-3 limits assumed): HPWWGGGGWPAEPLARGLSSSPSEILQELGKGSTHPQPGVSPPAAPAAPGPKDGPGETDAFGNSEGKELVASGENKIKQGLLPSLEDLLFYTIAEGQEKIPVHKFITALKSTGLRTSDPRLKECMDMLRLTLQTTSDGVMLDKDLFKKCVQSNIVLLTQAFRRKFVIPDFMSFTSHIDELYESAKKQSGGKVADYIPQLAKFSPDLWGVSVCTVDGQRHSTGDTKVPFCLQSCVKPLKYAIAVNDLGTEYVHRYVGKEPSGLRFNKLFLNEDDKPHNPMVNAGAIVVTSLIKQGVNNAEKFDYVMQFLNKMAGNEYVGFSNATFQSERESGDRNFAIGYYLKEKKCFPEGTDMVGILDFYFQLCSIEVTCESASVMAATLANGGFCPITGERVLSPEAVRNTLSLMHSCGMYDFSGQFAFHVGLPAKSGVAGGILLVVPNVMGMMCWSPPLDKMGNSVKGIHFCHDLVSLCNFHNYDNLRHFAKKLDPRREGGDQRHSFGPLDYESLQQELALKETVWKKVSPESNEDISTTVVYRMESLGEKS
The assay is described as follows: GLS1 enzymatic activity assay (dual-coupled, Amplex UltraRed/resorufin). It counts as biochemical. An outline of the steps: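 In this coupled fluorometric format, phosphate-activated GAC (2 nM, 50 mM phosphate) is pre-exposed to compound for 10 min before 1 mM glutamine addition. Product is tracked as resorufin (530/590 nm) over time or at 20 min, and potency is derived by logistic fitting.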

The EC50 is the midpoint of the concentration-response curve. The low end stands for greater potency, the high end for weaker potency. As a reminder, the IC50 is the concentration that gives 50% inhibition. The compound `CCOC(=O)N1CCN(CC(=O)Nc2ccn(CCC(F)Cn3cc(C(=O)NCc4cccc(OC(F)(F)F)c4)nn3)c(=O)c2F)CC1` (centres unmarked) [Example 292, ethyl 4-{[(3-fluoro-1-{3-fluoro-4-[4-({[3-(trifluoro-methoxy)phenyl]methyl}carbamoyl)-1H-1,2,3-triazol-1-yl]butyl}-2-oxo-1,2-dihydropyridin-4-yl)carbamoyl]methyl}piperazine-1-carboxylate] came in with an EC50 in the assay with A549 cells of less than 100 nM. The IC50 in assay [1] was less than 100 nM.
In the case of `O=C(CN1CCCC1)Nc1ccn(CCC(F)Cn2cc(C(=O)NCc3cccc(OC(F)(F)F)c3)nn2)c(=O)c1F` (centres unmarked) [Example 293, 1-(2-fluoro-4-{3-fluoro-2-oxo-4-[2-(pyrrolidin-1-yl)acetamido]-1,2-dihydropyridin-1-yl}butyl)-N-{[3-(trifluoromethoxy)phenyl]methyl}-1H-1,2,3-triazole-4-carboxamide], in the assay with A549 cells, the EC50 was in the range of 100 to 500 nM. The IC50 in assay [1] is less than 100 nM.
As to `CC1(C)CN(CC(=O)Nc2ccn(CCC(F)Cn3cc(C(=O)NCc4cccc(OC(F)(F)F)c4)nn3)c(=O)c2F)CCO1` (centres unmarked) [Example 294, 1-(4-{4-[2-(2,2-dimethylmorpholin-4-yl)acetamido]-3-fluoro-2-oxo-1,2-dihydropyridin-1-yl}-2-fluorobutyl)-N-{[3-(trifluoromethoxy)phenyl]methyl}-1H-1,2,3-triazole-4-carboxamide], the EC50 in the assay on A549 cells is less than 100 nM. Moreover, in assay [1], the IC50 is less than 100 nM.
In the assay with A549 cells, `O=C(CN1CCCC(F)(F)C1)Nc1ccn(CCC(F)Cn2cc(C(=O)NCc3cccc(OC(F)(F)F)c3)nn2)c(=O)c1F` (centres unmarked) [Example 295, 1-(4-{4-[2-(3,3-difluoropiperidin-1-yl)acetamido]-3-fluoro-2-oxo-1,2-dihydropyridin-1-yl}-2-fluorobutyl)-N-{[3-(trifluoromethoxy)phenyl]methyl}-1H-1,2,3-triazole-4-carboxamide] returned an EC50 of less than 100 nM. Besides, the IC50 in assay [1] was less than 100 nM.
In the assay on A549 cells, `CC(C)(C)OC(=O)N1CCN(CC(=O)Nc2ccn(CCC(F)Cn3cc(C(=O)NCc4cccc(OC(F)(F)F)c4)nn3)c(=O)c2F)CC1` (centres unmarked) [Example 296, tert-butyl 4-{[(3-fluoro-1-{3-fluoro-4-[4-({[3-(trifluoro-methoxy)phenyl]methyl}carbamoyl)-1H-1,2,3-triazol-1-yl]butyl}-2-oxo-1,2-dihydropyridin-4-yl)carbamoyl]methyl}piperazine-1-carboxylate] showed an EC50 of less than 100 nM. The IC50 in assay [1] was less than 100 nM.
In the assay with A549 cells, `CC(C)(C)OC(=O)N1CC2(CN(CC(=O)Nc3ccn(CCC(F)Cn4cc(C(=O)NCc5cccc(OC(F)(F)F)c5)nn4)c(=O)c3F)C2)C1` (centres unmarked) [Example 297, tert-butyl 6-{[(3-fluoro-1-{3-fluoro-4-[4-({[3-(trifluoro-methoxy)phenyl]methyl}carbamoyl)-1H-1,2,3-triazol-1-yl]butyl}-2-oxo-1,2-dihydropyridin-4-yl)carbamoyl]methyl}-2,6-diazaspiro[3.3]heptane-2-carboxylate] registered an EC50 of less than 100 nM. In addition, the IC50 in assay [1] is less than 100 nM.
`Cc1ccc(CNC(=O)c2cn(CC(F)CCn3ccc(NC(=O)OC(C)(C)C)c(F)c3=O)nn2)cn1` (centres unmarked) [Example 298, tert-butyl N-{3-fluoro-1-[3-fluoro-4-(4-{[(6-methylpyridin-3-yl)methyl]carbamoyl}-1H-1,2,3-triazol-1-yl)butyl]-2-oxo-1,2-dihydropyridin-4-yl}carbamate] displayed an EC50 in the assay on A549 cells of 500 to 5000 nM. In assay [1], the IC50 was in the range of 100 to 500 nM.
The corresponding values for `O=C(CC1CCNCC1)Nc1ccn(CCC(F)Cn2cc(C(=O)NCc3cccc(OC(F)(F)F)c3)nn2)c(=O)c1F` (centres unmarked) [Example 299, 1-(2-fluoro-4-{3-fluoro-2-oxo-4-[2-(piperidin-4-yl)acetamido]-1,2-dihydropyridin-1-yl}butyl)-N-{[3-(trifluoromethoxy)phenyl]methyl}-1H-1,2,3-triazole-4-carboxamide] are 500 to 5000 nM and 100 to 500 nM.
The compound `CCOC(=O)N1CCC(CC(=O)Nc2ccn(CCC(F)Cn3cc(C(=O)NCc4cccc(OC(F)(F)F)c4)nn3)c(=O)c2F)CC1` (centres unmarked) [Example 300, ethyl 4-{[(3-fluoro-1-{3-fluoro-4-[4-({[3-(trifluoro-methoxy)phenyl]methyl}carbamoyl)-1H-1,2,3-triazol-1-yl]butyl}-2-oxo-1,2-dihydropyridin-4-yl)carbamoyl]methyl}piperidine-1-carboxylate] registered an EC50 with A549 cells of less than 100 nM. In addition, the IC50 in assay [1] is less than 100 nM.
Consider `O=C(CC1CCN(C(=O)CC(F)(F)F)CC1)Nc1ccn(CCC(F)Cn2cc(C(=O)NCc3cccc(OC(F)(F)F)c3)nn2)c(=O)c1F` (centres unmarked) [Example 301, 1-[2-fluoro-4-(3-fluoro-2-oxo-4-{2-[1-(3,3,3-trifluoropropanoyl)piperidin-4-yl]acetamido}-1,2-dihydropyridin-1-yl)butyl]-N-{[3-(trifluoromethoxy)phenyl]methyl}-1H-1,2,3-triazole-4-carboxamide], for which the EC50 in the assay with A549 cells is less than 100 nM. Also, the IC50 in assay [1] was less than 100 nM.
Turning to `CS(=O)(=O)N1CCC(CC(=O)Nc2ccn(CCC(F)Cn3cc(C(=O)NCc4cccc(OC(F)(F)F)c4)nn3)c(=O)c2F)CC1` (centres unmarked) [Example 302, 1-(2-fluoro-4-{3-fluoro-4-[2-(1-methanesulfonylpiperidin-4-yl)acetamido]-2-oxo-1,2-dihydropyridin-1-yl}butyl)-N-{[3-(trifluoromethoxy)phenyl]methyl}-1H-1,2,3-triazole-4-carboxamide], the 50% effective concentration (EC50) in the assay with A549 cells lay within 100 to 500 nM. The IC50 in assay [1] is less than 100 nM.
The corresponding values for `Cc1ccc(CNC(=O)c2cn(CC(F)CCn3ccc(NC(=O)CC4CCCC4)c(F)c3=O)nn2)cn1` (centres unmarked) [Example 303, 1-{4-[4-(2-cyclopentylacetamido)-3-fluoro-2-oxo-1,2-dihydropyridin-1-yl]-2-fluorobutyl}-N-[(6-methylpyridin-3-yl)methyl]-1H-1,2,3-triazole-4-carboxamide] are less than 100 nM and less than 100 nM.
The like results for `Cc1ccc(CNC(=O)c2cn(CC(F)CCn3ccc(NC(=O)CC4CCC4)c(F)c3=O)nn2)cn1` (centres unmarked) [Example 304, 1-(4-(4-(2-cyclobutylacetamido)-3-fluoro-2-oxopyridin-1(2H)-yl)-2-fluorobutyl)-N-((6-methylpyridin-3-yl)methyl)-1H-1,2,3-triazole-4-carboxamide] were, in that order, less than 100 nM and less than 100 nM.
The corresponding values for `CC(=O)OC(C(=O)Nc1ccn(CC[C@H](F)Cn2cc(C(=O)NCc3cccc(OC(F)(F)F)c3)nn2)c(=O)c1F)c1ccccc1` (stereo partly drawn) [Example 305, (S)-[(3-fluoro-1-{3-fluoro-4-[4-({[3-(trifluoromethoxy)phenyl]methyl}carbamoyl)-1H-1,2,3-triazol-1-yl]butyl}-2-oxo-1,2-dihydropyridin-4-yl)carbamoyl](phenyl)methyl acetate] are less than 100 nM and less than 100 nM.
Turning to `Cc1ccc(CNC(=O)c2cn(CC(F)CCn3ccc(NC(=O)Cc4ccccc4)c(F)c3=O)nn2)cn1` (centres unmarked) [Example 307, 1-{2-fluoro-4-[3-fluoro-2-oxo-4-(2-phenylacetamido)-1,2-dihydropyridin-1-yl]butyl}-N-[(6-methylpyridin-3-yl)methyl]-1H-1,2,3-triazole-4-carboxamide], the EC50 with A549 cells fell in the range of 100 to 500 nM. Further, the IC50 in assay [1] was less than 100 nM.
The compound `O=C(CN1CCN(C(=O)CC(F)(F)F)CC1)Nc1ccn(CCC(F)Cn2cc(C(=O)NCc3cccc(OC(F)(F)F)c3)nn2)c(=O)c1F` (centres unmarked) [Example 308, 1-[2-fluoro-4-(3-fluoro-2-oxo-4-{2-[4-(3,3,3-trifluoropropanoyl)piperazin-1-yl]acetamido}-1,2-dihydropyridin-1-yl)butyl]-N-{[3-(trifluoromethoxy)phenyl]methyl}-1H-1,2,3-triazole-4-carboxamide] registered an EC50 with A549 cells of 100 to 500 nM. Besides, the IC50 in assay [1] is less than 100 nM.
The corresponding values for `CO[C@H](C(=O)Nc1ccn(CC(F)CCn2cc(C(=O)NCc3cccc(OC(F)(F)F)c3)nn2)c(=O)c1F)c1ccccc1` (stereo partly drawn) [Example 309, 1-(3-fluoro-4-{3-fluoro-4-[(2S)-2-methoxy-2-phenylacetamido]-2-oxo-1,2-dihydropyridin-1-yl}butyl)-N-{[3-(trifluoromethoxy)phenyl]methyl}-1H-1,2,3-triazole-4-carboxamide] are 500 to 5000 nM and 500 to 5000 nM.
For `CO[C@@H](C(=O)Nc1ccn(CC(F)CCn2cc(C(=O)NCc3cccc(OC(F)(F)F)c3)nn2)c(=O)c1F)c1ccccc1` (stereo partly drawn) [Example 310, 1-(3-fluoro-4-{3-fluoro-4-[(2R)-2-methoxy-2-phenylacetamido]-2-oxo-1,2-dihydropyridin-1-yl}butyl)-N-{[3-(trifluoromethoxy)phenyl]methyl}-1H-1,2,3-triazole-4-carboxamide], the EC50 in the assay on A549 cells fell in the range of 500 to 5000 nM. The IC50 in assay [1] is 500 to 5000 nM.
Turning to `CCOC(=O)c1cn(CC(F)CCn2ccc(NC(=O)OC(C)(C)C)c(F)c2=O)nn1` (centres unmarked) [Example 311, ethyl 1-[4-(4-{[(tert-butoxy)carbonyl]amino}-3-fluoro-2-oxo-1,2-dihydropyridin-1-yl)-2-fluorobutyl]-1H-1,2,3-triazole-4-carboxylate], the EC50 with A549 cells is greater than 5000 nM. Further, the IC50 in assay [1] was in the range of 500 to 5000 nM.
